Numbers after ± are expanded uncertainties.
Columns and labels:
[1] = Crystal; DTA
[2] = Molar enthalpy of transition or fusion; settings: Crystal; DSC

SMILES: Cc1cc(C)[nH]n1 [3,5-dimethylpyrazole]
- Normal melting temperature [1]: 108.60 ± 0.5 °C
- Molar enthalpy of transition or fusion [2]: 3.94 ± 0.21 kcal/mol

From the NIST ThermoML archive (doi:10.1016/j.jct.2017.02.011)
